Here are results for 19 compounds from patent US10040805B2, “Substituted imidazo[1,5-a]pyrazines as Btk inhibitors” (MERCK SHARP & DOHME CORP., priority 2014, dated 2018).

Broadly, the IC50 is the concentration at which inhibition is half-maximal.

BTK enzyme (full-length BTK, hBTK), sequence (Q06187 whole entry): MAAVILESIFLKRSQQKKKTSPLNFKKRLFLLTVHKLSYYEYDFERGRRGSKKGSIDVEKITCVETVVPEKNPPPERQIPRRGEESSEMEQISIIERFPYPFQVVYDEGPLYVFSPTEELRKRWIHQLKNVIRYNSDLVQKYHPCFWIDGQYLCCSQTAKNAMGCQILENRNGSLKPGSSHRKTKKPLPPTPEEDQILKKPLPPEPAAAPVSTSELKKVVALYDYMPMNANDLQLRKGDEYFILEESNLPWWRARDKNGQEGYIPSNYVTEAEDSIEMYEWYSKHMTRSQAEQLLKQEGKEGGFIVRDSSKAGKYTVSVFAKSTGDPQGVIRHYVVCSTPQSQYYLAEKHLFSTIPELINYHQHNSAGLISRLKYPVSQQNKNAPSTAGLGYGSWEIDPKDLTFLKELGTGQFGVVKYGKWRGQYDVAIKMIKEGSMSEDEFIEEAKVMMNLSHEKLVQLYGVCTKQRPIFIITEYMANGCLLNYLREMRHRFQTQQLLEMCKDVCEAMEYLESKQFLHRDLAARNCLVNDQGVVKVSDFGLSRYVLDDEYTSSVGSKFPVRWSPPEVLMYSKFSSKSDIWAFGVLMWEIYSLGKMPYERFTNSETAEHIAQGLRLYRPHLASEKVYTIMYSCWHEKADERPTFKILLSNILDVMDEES

The assay concerns the target BTK enzyme (full-length BTK, hBTK) (Homo sapiens (Human), UniProt Q06187). As to the kind of experiment: Btk enzyme activity assay, LANCE TR-FRET. The class given is biochemical. The settings on record: 50 pM hBTK, 2 μM biotin-A5-peptide, 25 μM ATP, 60 minute compound & enzyme incubation, read-out: BTK binding IC50. The method, then:
BTK enzymatic activity was determined with the LANCE (Lanthanide Chelate Excite) TR-FRET (Time-resolved fluorescence resonance energy transfer) assay. In this assay, the potency (IC50) of each compound was determined from an eleven point (1:3 serial dilution; final compound concentration range in assay from 1 μM to 0.017 nM) titration curve using the following outlined procedure. To each well of a black non-binding surface Corning 384-well microplate (Corning Catalog #3820), 5 nL of compound (2000 fold dilution in final assay volume of 10 μL) was dispensed, followed by the addition of 7.5 μL of 1× kinase buffer (50 mM Hepes 7.5, 10 mM MgCl2, 0.01% Brij-35, 1 mM EGTA, 0.05% BSA & 1 mM DTT) containing 5.09 pg/μL (66.67 pM) of BTK enzyme (recombinant protein from baculovirus-transfected Sf9 cells: full-length BTK, 6HIS-tag cleaved). Following a 60 minute compound & enzyme incubation, each reaction was initiated by the addition of 2.5 μL 1× kinase buffer containing 8 μM biotinylated “A5” peptide (Biotin-EQEDEPEGDYFEWLE-NH2) (SEQ. ID. NO.: 1), and 100 μM ATP. The final reaction in each well of 10 μL consists of 50 pM hBTK, 2 μM biotin-A5-peptide, and 25 μM ATP. Phosphorylation reactions were allowed to proceed for 120 minutes. Reactions were immediately quenched by the addition of 20 uL of 1× quench buffer (15 mM EDTA, 25 mM Hepes 7.3, and 0.1% Triton X-100) containing detection reagents (0.626 nM of LANCE-Eu-W1024-anti-phosphoTyrosine antibody, PerkinElmer and 86.8 nM of Streptavidin-conjugated Dylight 650, Dyomics/ThermoFisher Scientific). After 60 minutes incubation with detection reagents, reaction plates were read on a PerkinElmer EnVision plate reader using standard TR-FRET protocol. Briefly, excitation of donor molecules (Eu-chelate:anti-phospho-antibody) with a laser light source at 337 nm produces energy that can be transferred to Dylight-650 acceptor molecules if this donor:acceptor pair is within close proximity. Fluorescence intensity at both 665 nm (acceptor) and 615 nm (donor) are measured and a TR-FRET ratio calculated for each well (acceptor intensity/donor intensity). IC50 values were determined by 4 parameter robust fit of TR-FRET ratio values vs. (Log10) compound concentrations.
Background: In TR-FRET formats the signal depends on donor and acceptor labels being close together.
On to `CCOc1cc(C(=O)Nc2cc(C(F)(F)F)ccn2)cc(F)c1-c1nc([C@]2(C)CC[C@H]3COC(=O)N3C2)n2ccnc(N)c12` [Example 11, 4-{8-amino-3-[(6R,8aS)-6-methyl-3-oxohexahydro[1,3]oxazolo[3,4-a]pyridin-6-yl]imidazo[1,5-a]pyrazin-1-yl}-3-ethoxy-5-fluoro-N-[4-(trifluoromethyl)pyridin-2-yl] benzamide], for which the IC50 was 0.59 nM. With `CCOc1cc(C(=O)Nc2cc(C(F)(F)F)n(C)n2)ccc1-c1nc([C@]2(C)CC[C@H]3CN(C(C)C)CC(=O)N3C2)n2ccnc(N)c12` [Example 15, 4-{8-amino-3-[(7R,9aS)-7-methyl-2-(1-methylethyl)-4-oxooctahydro-2H-pyrido[1,2-a]pyrazin-7-yl]imidazo[1,5-a]pyrazin-1-yl}-3-ethoxy-N-[1-methyl-5-(trifluoromethyl)-1H-pyrazol-3-yl]benzamide], the concentration for half-maximal inhibition (IC50) was determined as 1.27 nM. Turning to `CCOc1cc(C(=O)Nc2cc(C(F)(F)F)n(C)n2)ccc1-c1nc([C@@]2(C)CC[C@@H]3COC(=O)N3C2)n2ccnc(N)c12` [Example 2, 4-(8-amino-3-((6S,8aR)-6-methyl-3-oxohexahydro-1H-oxazolo[3,4-a]pyridin-6-yl)imidazo[1,5-a]pyrazin-1-yl)-3-ethoxy-N-(1-methyl-5-(trifluoromethyl)-1H-pyrazol-3-yl)benzamide], the IC50 came out at 3.07 nM. In the case of `CCOc1cc(C(=O)Nc2cc(C(F)(F)F)n(C)n2)ccc1-c1nc([C@]2(C)CC[C@H]3COC(=O)N3C2)n2ccnc(N)c12` [Example 8, 4-{8-amino-3-[(6R,8aS)-6-methyl-3-oxohexahydro[1,3]oxazolo[3,4-a]pyridin-6-yl]imidazo[1,5-a]pyrazin-1-yl}-3-ethoxy-N-[1-methyl-5-(trifluoromethyl)-1H-pyrazol-3-yl]benzamide], the IC50 came to 0.7 nM. As to `CCOc1cc(C(=O)Nc2cc(C(F)(F)F)ccn2)ccc1-c1nc([C@]2(C)CC[C@H]3CN(C(C)C)CC(=O)N3C2)n2ccnc(N)c12` [Example 14, 4-{8-amino-3-[(7R,9aS)-7-methyl-2-(1-methylethyl)-4-oxooctahydro-2H-pyrido[1,2-a]pyrazin-7-yl]imidazo[1,5-a]pyrazin-1-yl}-3-ethoxy-N-[4-(trifluoromethyl)pyridin-2-yl] benzamide], the IC50 worked out at 0.42 nM. Consider `C[C@@]1(c2nc(-c3ccc(C(=O)Nc4cc(C5CC5)ccn4)cc3F)c3c(N)nccn23)CC[C@H]2COC(=O)N2C1` [Example 10, 4-{8-amino-3-[(6R,8aS)-6-methyl-3-oxohexahydro[1,3]oxazolo[3,4-a]pyridin-6-yl]imidazo[1,5-a]pyrazin-1-yl}-N-(4-cyclopropylpyridin-2-yl)-3-fluorobenzamide], for which the concentration for half-maximal inhibition (IC50) came out at 0.18 nM. In the case of `C[C@@]1(c2nc(-c3ccc(C(=O)Nc4cc(C(F)(F)F)ccn4)cc3F)c3c(N)nccn23)CC[C@H]2COC(=O)N2C1` [Example 9, 4-{8-amino-3-[(6R,8aS)-6-methyl-3-oxohexahydro[1,3]oxazolo[3,4-a]pyridin-6-yl]imidazo[1,5-a]pyrazin-1-yl}-3-fluoro-N-[4-(trifluoromethyl)pyridin-2-yl] benzamide], the IC50 amounted to 0.22 nM. As to `CCOc1cc(C(=O)Nc2cc(C(F)(F)F)ccn2)ccc1-c1nc(C2(CC)CCC3CCN(CC)C(=O)N3C2)n2ccnc(N)c12` (single isomer, unassigned) [Example 6, 4-[8-amino-3-(2,7-diethyl-1-oxooctahydro-1H-pyrido[1,2-c]pyrimidin-7-yl)imidazo[1,5-a]pyrazin-1-yl]-3-ethoxy-N-[4-(trifluoromethyl)pyridin-2-yl] benzamide], the IC50 was found to be 215 nM.

For `CCOc1cc(C(=O)Nc2cc(C(F)(F)F)n(C)n2)c(Cl)cc1-c1nc([C@]2(C)CC[C@H]3CN(C(C)C)CC(=O)N3C2)n2ccnc(N)c12` [Example 16, 4-{8-amino-3-[(7R,9aS)-7-methyl-2-(1-methylethyl)-4-oxooctahydro-2H-pyrido[1,2-a]pyrazin-7-yl]imidazo[1,5-a]pyrazin-1-yl}-2-chloro-5-ethoxy-N-[1-methyl-5-(trifluoromethyl)-1H-pyrazol-3-yl] benzamide], the IC50 worked out at 3.41 nM. Regarding `CCOc1cc(C(=O)Nc2cc(C(F)(F)F)n(C)n2)ccc1-c1nc([C@@]2(C)CC[C@@H]3CN(C(C)C)CC(=O)N3C2)n2ccnc(N)c12` [Example 4, 4-(8-amino-3-((7S,9aR)-2-isopropyl-7-methyl-4-oxooctahydro-1H-pyrido[1,2-a]pyrazin-7-yl)imidazo[1,5-a]pyrazin-1-yl)-3-ethoxy-N-(1-methyl-5-(trifluoromethyl)-1H-pyrazol-3-yl)benzamide bis(2,2,2-trifluoroacetate)], the IC50 was 2.5 nM. With `C[C@@]1(c2nc(-c3ccc(C(=O)Nc4cc(C(F)(F)F)ccn4)cc3)c3c(N)nccn23)CC[C@H]2CCC(=O)N2C1` [Example 17, 4-(8-amino-3-((6R,8aS)-6-methyl-3-oxooctahydroindolizin-6-yl)imidazo[1,5-a]pyrazin-1-yl)-N-(4-(trifluoromethyl)pyridin-2-yl)benzamide] the figure was 0.18 nM. As for `CCOc1cc(C(=O)Nc2cc(C(F)(F)F)ccn2)ccc1-c1nc([C@@]2(C)CC[C@@H]3COC(=O)N3C2)n2ccnc(N)c12` [Example 1, 4-(8-amino-3-((6S,8aR)-6-methyl-3-oxohexahydro-1H-oxazolo[3,4-a]pyridin-6-yl)imidazo[1,5-a]pyrazin-1-yl)-3-ethoxy-N-(4-(trifluoromethyl)pyridin-2-yl)benzamide], the half-inhibitory concentration (IC50) is 0.61 nM.

With `CCOc1cc(C(=O)Nc2cc(C(F)(F)F)ccn2)ccc1-c1nc(C2(C)CCC3CCN(C)C(=O)N3C2)n2ccnc(N)c12` (stereo not shown) [Example 13, 4-[8-amino-3-(2,7-dimethyl-1-oxooctahydro-1H-pyrido[1,2-c]pyrimidin-7-yl)imidazo[1,5-a]pyrazin-1-yl]-3-ethoxy-N-[4-(trifluoromethyl)pyridin-2-yl] benzamide], the IC50 is 10 nM. As for `CCOc1cc(C(=O)Nc2cc(C(F)(F)F)ccn2)ccc1-c1nc([C@]2(C)CC[C@H]3COC(=O)N3C2)n2ccnc(N)c12` [Example 7], the half-maximal inhibitory concentration (IC50) came out at 0.59 nM. Consider `COc1cc(C(=O)Nc2cc(C(F)(F)F)ccn2)ccc1-c1nc([C@]2(C)CC[C@H]3CCC(=O)N3C2)n2ccnc(N)c12` [Example 19, 4-(8-amino-3-((6R,8aS)-6-methyl-3-oxooctahydroindolizin-6-yl)imidazo[1,5-a]pyrazin-1-yl)-3-methoxy-N-(4-(trifluoromethyl)pyridin-2-yl)benzamide], for which the IC50 turned out to be 0.33 nM. Take `CCOc1cc(C(=O)Nc2cc(C(F)(F)F)ccn2)ccc1-c1nc([C@@]2(C)CC[C@@H]3CN(C(C)C)CC(=O)N3C2)n2ccnc(N)c12` [Example 3, 4-(8-amino-3-((7S,9aR)-2-isopropyl-7-methyl-4-oxooctahydro-1H-pyrido[1,2-a]pyrazin-7-yl)imidazo[1,5-a]pyrazin-1-yl)-3-ethoxy-N-(4-(trifluoromethyl)pyridin-2-yl)benzamide bis(2,2,2-trifluoroacetate)]: the IC50 stood at 0.61 nM. Consider `CCOc1cc(C(=O)Nc2cc(C(F)(F)F)ccn2)ccc1-c1nc(C2(CC)CCC3CCN(CC)C(=O)N3C2)n2ccnc(N)c12` (single isomer, unassigned) [Example 5, 4-[8-amino-3-(2,7-diethyl-1-oxooctahydro-1H-pyrido[1,2-c]pyrimidin-7-yl)imidazo[1,5-a]pyrazin-1-yl]-3-ethoxy-N-[4-(trifluoromethyl)pyridin-2-yl] benzamide], for which the concentration for half-maximal inhibition (IC50) was 1000 nM. With `CCOc1cc(C(=O)Nc2cc(C(F)(F)F)ccn2)ccc1-c1nc([C@]2(C)CC[C@H]3CCC(=O)N3C2)n2ccnc(N)c12` [Example 18, 4-(8-amino-3-((6R,8aS)-6-methyl-3-oxooctahydroindolizin-6-yl)imidazo[1,5-a]pyrazin-1-yl)-3-ethoxy-N-(4-(trifluoromethyl)pyridin-2-yl)benzamide], the concentration for half-maximal inhibition (IC50) was found to be 0.44 nM. With `CCOc1cc(C(=O)Nc2cc(C(F)(F)F)ccn2)ccc1-c1nc(C2(C)CCC3CCN(C)C(=O)N3C2)n2ccnc(N)c12` (stereo not shown) [Example 12, 4-[8-amino-3-(2,7-dimethyl-1-oxooctahydro-1H-pyrido[1,2-c]pyrimidin-7-yl)imidazo[1,5-a]pyrazin-1-yl}-3-ethoxy-N-[4-(trifluoromethyl)pyridin-2-yl] benzamide] the figure was 411 nM.
